Measured values from ChEMBL document CHEMBL5214881, “Squaric acid analogues in medicinal chemistry” (Eur J Med Chem, 2021).
Values after ≈ are worked out from the molar mass of the structure shown.

Assays:
Urinary bladder = assay: Inhibition of KCL-induced contraction in rat urinary bladder; format: functional, tissue-based; settings: Urinary bladder smooth muscle
[1] = target: T1, C-X-C chemokine receptor type 1 (Homo sapiens, UniProt P25024); assay: Binding affinity to human CXCR1 assessed as dissociation constant incubated for 6 to 24 hrs by radioligand binding assay
T1 sequence (P25024 whole entry): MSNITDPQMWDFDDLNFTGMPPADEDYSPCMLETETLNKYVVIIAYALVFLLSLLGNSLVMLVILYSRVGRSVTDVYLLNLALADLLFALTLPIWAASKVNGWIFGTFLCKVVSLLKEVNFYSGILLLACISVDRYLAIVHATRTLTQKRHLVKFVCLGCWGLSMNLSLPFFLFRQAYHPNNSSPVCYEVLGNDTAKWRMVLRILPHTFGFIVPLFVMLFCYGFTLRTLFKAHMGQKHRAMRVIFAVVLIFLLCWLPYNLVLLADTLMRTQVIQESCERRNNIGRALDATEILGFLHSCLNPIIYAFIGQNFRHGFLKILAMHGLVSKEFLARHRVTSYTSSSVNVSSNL

[2] = target: T2, C-X-C chemokine receptor type 2 (Homo sapiens, UniProt P25025); assay: Binding affinity to human CXCR2 assessed as dissociation constant incubated for 6 to 24 hrs by radioligand binding assay
T2 sequence (P25025 whole entry): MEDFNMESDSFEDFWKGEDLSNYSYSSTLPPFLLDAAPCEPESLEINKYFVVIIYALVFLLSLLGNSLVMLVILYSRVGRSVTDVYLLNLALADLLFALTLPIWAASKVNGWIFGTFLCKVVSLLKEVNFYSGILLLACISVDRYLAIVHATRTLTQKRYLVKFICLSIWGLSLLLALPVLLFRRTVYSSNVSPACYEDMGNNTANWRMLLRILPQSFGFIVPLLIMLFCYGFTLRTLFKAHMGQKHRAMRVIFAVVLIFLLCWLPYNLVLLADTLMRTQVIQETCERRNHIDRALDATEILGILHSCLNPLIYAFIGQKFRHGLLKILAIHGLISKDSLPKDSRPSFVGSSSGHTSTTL

[3] = target: T1, C-X-C chemokine receptor type 1; assay: Inhibition of human CXCR1
Leishmania infantum = assay: Antileishmanial activity against promastigote stage of Leishmania infantum MCAN/ES/2001/UCM-10 incubated for 72 hrs by Neubauer haemocytometric chamber analysis; format: functional, organism-based; settings: MCAN/ES/2001/UCM-10, 72 h
Leishmania braziliensis = assay: Antileishmanial activity against promastigote stage of Leishmania braziliensis MHOM/BR/1975/M2904 incubated for 72 hrs by Neubauer haemocytometric chamber analysis; format: functional, organism-based; settings: MHOM/BR/1975/M2904, 72 h
Leishmania donovani = assay: Antileishmanial activity against promastigote stage of Leishmania donovani MHOM/PE/84/LC26 incubated for 72 hrs by Neubauer haemocytometric chamber analysis; format: functional, organism-based; settings: MHOM/PE/84/LC26, 72 h
HeLa = assay: Cytotoxicity against human HeLa cells assessed as reduction in cell viability incubated for 24 hrs by MTT assay; format: functional, cell-based
Acetylcholinesterase = Acetylcholinesterase (Homo sapiens, UniProt P22303); assay: Inhibition of human AchE by spectrophotometric analysis
Cholinesterase = Cholinesterase (Homo sapiens, UniProt P06276); assay: Inhibition of human BchE by spectrophotometric analysis
[4] = Inhibition of Yersinia pestis PTP
[5] = target: T3, Type-2 angiotensin II receptor (Homo sapiens, UniProt P50052); assay: Inhibition of Angiotensin 2 binding to Angiotensin 2 receptor (unknown origin)
T3 sequence (P50052 whole entry): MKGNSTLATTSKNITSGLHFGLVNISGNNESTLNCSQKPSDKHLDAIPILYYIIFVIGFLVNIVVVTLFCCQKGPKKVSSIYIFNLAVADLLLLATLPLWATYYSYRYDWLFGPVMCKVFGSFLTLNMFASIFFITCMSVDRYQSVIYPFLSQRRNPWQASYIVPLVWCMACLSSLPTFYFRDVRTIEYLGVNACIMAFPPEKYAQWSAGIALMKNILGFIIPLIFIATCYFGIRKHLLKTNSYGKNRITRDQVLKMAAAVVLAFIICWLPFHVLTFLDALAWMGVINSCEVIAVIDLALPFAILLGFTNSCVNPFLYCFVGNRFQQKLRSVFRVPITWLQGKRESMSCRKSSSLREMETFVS

Helicobacter pylori = assay: Antibacterial activity against Helicobacter pylori assessed as bacterial growth inhibition; format: functional
Interstitial collagenase = target: T4, Interstitial collagenase (Homo sapiens, UniProt P03956); assay: Inhibition of MMP-1 (unknown origin) using DnpPro-Cha-Gly-Cys(Me)-His-Ala-Lys(Nma)-NH2 as substrate by fluorescence spectroscopy
T4 sequence (P03956 whole entry): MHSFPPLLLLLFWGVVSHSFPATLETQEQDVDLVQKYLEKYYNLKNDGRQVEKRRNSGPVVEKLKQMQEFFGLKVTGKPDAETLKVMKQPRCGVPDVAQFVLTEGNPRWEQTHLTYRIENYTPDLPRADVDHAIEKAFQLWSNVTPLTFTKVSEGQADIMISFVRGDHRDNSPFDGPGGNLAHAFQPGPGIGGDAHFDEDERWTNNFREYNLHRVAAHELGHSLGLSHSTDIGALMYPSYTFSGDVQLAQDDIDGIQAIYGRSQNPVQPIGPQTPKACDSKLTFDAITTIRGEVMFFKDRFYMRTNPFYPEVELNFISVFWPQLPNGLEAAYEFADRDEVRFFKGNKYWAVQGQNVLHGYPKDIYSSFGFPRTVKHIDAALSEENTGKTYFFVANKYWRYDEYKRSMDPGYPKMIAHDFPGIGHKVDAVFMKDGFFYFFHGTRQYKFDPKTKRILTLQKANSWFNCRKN

[6] = Dissociation constant, pKa of the compound; format: physicochemical
[7] = target: Glutamate [NMDA] receptor; assay: Binding affinity to NMDA receptor (unknown origin); format: protein-complex assay, Homo sapiens
[8] = Toxicity in Swiss albino mouse assessed as lethality pretreated for 30 mins followed by NMDA stimulation and measured after 30 mins; settings: in vivo, 1 h, time 60 min
[9] = target: Glutamate [NMDA] receptor; assay: Binding affinity to TCP-stimulated NMDA (unknown origin); format: protein-complex assay, Homo sapiens

Chain of Cholinesterase (P06276 whole entry): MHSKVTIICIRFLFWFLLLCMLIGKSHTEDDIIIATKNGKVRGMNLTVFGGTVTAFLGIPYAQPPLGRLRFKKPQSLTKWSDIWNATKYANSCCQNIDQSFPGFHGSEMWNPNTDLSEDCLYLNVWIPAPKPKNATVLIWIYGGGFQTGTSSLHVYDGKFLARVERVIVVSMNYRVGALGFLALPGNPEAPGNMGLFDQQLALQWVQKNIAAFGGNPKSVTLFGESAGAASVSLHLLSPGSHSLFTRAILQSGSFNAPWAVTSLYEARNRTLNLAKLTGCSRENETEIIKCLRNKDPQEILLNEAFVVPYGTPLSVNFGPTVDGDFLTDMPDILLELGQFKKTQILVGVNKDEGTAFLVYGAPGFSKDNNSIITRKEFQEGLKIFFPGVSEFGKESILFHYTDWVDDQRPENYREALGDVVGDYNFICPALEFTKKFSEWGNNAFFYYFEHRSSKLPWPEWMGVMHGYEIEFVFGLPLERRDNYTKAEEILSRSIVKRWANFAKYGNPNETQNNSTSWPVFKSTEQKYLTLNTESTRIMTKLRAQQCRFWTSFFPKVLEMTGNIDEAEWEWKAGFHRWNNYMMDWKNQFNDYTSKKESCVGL
Chain of Acetylcholinesterase (P22303 whole entry): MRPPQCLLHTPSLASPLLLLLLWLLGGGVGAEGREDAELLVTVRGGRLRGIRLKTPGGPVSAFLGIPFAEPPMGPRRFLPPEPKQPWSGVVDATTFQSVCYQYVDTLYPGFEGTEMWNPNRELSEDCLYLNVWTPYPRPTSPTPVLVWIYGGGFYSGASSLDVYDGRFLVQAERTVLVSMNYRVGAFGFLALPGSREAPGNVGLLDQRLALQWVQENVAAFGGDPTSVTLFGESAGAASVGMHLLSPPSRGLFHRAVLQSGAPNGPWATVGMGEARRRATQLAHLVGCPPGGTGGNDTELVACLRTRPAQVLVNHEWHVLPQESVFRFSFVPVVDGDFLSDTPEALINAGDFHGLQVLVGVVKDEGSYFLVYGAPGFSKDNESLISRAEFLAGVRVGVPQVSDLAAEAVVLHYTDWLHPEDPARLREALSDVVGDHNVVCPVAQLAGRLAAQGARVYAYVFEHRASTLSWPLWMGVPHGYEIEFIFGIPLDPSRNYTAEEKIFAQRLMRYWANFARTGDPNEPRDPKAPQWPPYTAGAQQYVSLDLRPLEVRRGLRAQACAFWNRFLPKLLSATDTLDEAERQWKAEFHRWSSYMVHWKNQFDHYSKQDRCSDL

CCc1cc(C#N)ccc1Nc1c(N[C@H](C)C(C)(C)C)c(=O)c1=O
IC50 (Urinary bladder): 90 nM

CC[C@@H](Nc1c(Nc2cccc(C(=O)N(C)C)c2O)c(=O)c1=O)c1ccco1
Kd [1]: 3.9 nM | Kd [2]: 0.049 nM

CCC(CC)Nc1c(Nc2cccc(C(=O)N(C)C)c2O)c(=O)c1=O
IC50 [3]: 15 nM

O=c1c(Nc2ccccc2)c(Nc2ccc([N+](=O)[O-])cc2O)c1=O
IC50 [3]: 36 nM

CC[C@@H](Nc1c(Nc2cccc(C(=O)N(C)C)c2O)c(=O)c1=O)c1ccccc1
IC50 [3]: 6.8 nM

CCCCNc1c(N(C)CCCN(C)C)c(=O)c1=O
IC50 (Leishmania infantum): 18000 nM | IC50 (Leishmania braziliensis): 17300 nM

O=c1c(NCc2ccccc2)c(NC2CCN(Cc3ccccc3)CC2)c1=O
IC50 (Leishmania donovani): 17900 nM

COc1c(Nc2ccc3ccccc3c2-c2c(O)ccc3ccccc23)c(=O)c1=O
IC50 (HeLa): 46700 nM

O=c1c(NCCCCCCCc2c3c(nc4ccccc24)CCCC3)c(NCCCCCCCc2c3c(nc4ccccc24)CCCC3)c1=O
IC50 (Acetylcholinesterase): 13 nM | IC50 (Cholinesterase): 21 nM

COc1c(Nc2ccc3c4c(cccc24)-c2ccccc2-3)c(=O)c1=O
IC50 (HeLa): 880 nM

O=c1c(O)c(-c2ccc([N+](=O)[O-])cc2)c1=O
IC50 [4]: 120000 nM

O=c1c(O)c(-c2ccccc2-c2ccc(CNc3cc(C(F)(F)F)cc4c3CCCC4)cc2)c1=O
IC50 [5]: 25 nM

O=c1c(NC/C=C\COc2cc(CN3CCCCC3)cs2)c(NCCF)c1=O
MIC (Helicobacter pylori): 1.56 µg/mL (≈ 3.83 µM)

CC[C@H](C)[C@H](Nc1c(N(C)O)c(=S)c1=O)C(=O)N[C@@H](Cc1ccccc1)C(=O)NC
IC50 (Interstitial collagenase): 15000 nM

O=c1c(NCCCCc2c3c(nc4cc(Cl)ccc24)CCCC3)c(NCCCCc2c3c(nc4ccc(Cl)cc24)CCCC3)c1=O
IC50 (Acetylcholinesterase): 2 nM | IC50 (Cholinesterase): 110 nM

Nc1nc2c(ncn2[C@@H]2O[C@@H]3CNc4c(c(=O)c4=O)N[C@H]3[C@H]2O)c(=O)[nH]1
pKa [6]: 2.3

CCCCCCCCCCCCCCC(C)Nc1c(NCC[N+](C)(C)C)c(=O)c1=O (configuration not stated)
IC50 (Leishmania infantum): 16300 nM

O=c1c(O)c(-c2ccc3ccccc3c2)c1=O
IC50 [4]: 40000 nM

Nc1c(NCCP(=O)(O)O)c(=O)c1=O
IC50 [7]: 470 nM | ED50 [8]: 29 mg/kg

O=c1c2c(c1=O)N(CCP(=O)(O)O)CCCN2 [PERZINFOTEL]
IC50 [7]: 30 nM | ED50 [8]: 2.1 mg/kg | IC50 [9]: 7600 nM
